The source made the active and inactive calls. No rule for the calls is given here.
Experiment: PubChem AID 624076
Details: Carna kinase panel, IMAP FP / mobility shift, at 10 µM, hits give high values

- inhibition (ABL(E255K)): -4.01% (inactive)
- inhibition (ABL(T315I)): 0.608% (inactive)
- inhibition (AKT2): 0.755% (inactive)
- inhibition (AKT3): 0.416% (inactive)
- inhibition (ALK(L1196M)): 2.33% (inactive)
- inhibition (ALK(R1275Q)): 2.67% (inactive)
- inhibition (ARG): -1.1% (inactive)
- inhibition (AXL): 4.36% (inactive)
- inhibition (AurB): 6.59% (inactive)
- inhibition (AurC): 6.9% (inactive)
- inhibition (BRAF, cascade assay): 10.8% (inactive)
- inhibition (BRK): -0.572% (inactive)
- inhibition (BRSK1): 4.37% (inactive)
- inhibition (BTK): -2.3% (inactive)
- inhibition (CDK9/CycT1): 20.5% (inactive)
- inhibition (CHK2): 6.76% (inactive)
- inhibition (CK1e): 0.145% (inactive)
- inhibition (CK1g1): 0.48% (inactive)
- inhibition (CK1g2): 2.84% (inactive)
- inhibition (CK2a2/b): -4.08% (inactive)
- inhibition (CK1d): -0.463% (inactive)
- inhibition (CLK1): 15.1% (inactive)
- inhibition (CLK2): 22.8% (inactive)
- inhibition (CLK3): 5.11% (inactive)
- inhibition (CRIK): 0.502% (inactive)
- inhibition (CaMK2b): 2.08% (inactive)
- inhibition (CaMK4): 2.19% (inactive)
- inhibition (CaMK1d): 0.058% (inactive)
- inhibition (DAPK1): 1.44% (inactive)
- inhibition (DCAMKL2): 3.11% (inactive)
- inhibition (DLK, cascade assay): -3.03% (inactive)
- inhibition (DYRK1A): 13.9% (inactive)
- inhibition (DYRK1B): 52.5%
- inhibition (DYRK2): -4.58% (inactive)
- inhibition (EGFR(L861Q)): -0.865% (inactive)
- inhibition (EML4-ALK): 1.03% (inactive)
- inhibition (EPHA3): -0.86% (inactive)
- inhibition (EPHA5): -0.402% (inactive)
- inhibition (EPHA8): -3.88% (inactive)
- inhibition (EPHB1): 3.24% (inactive)
- inhibition (EPHB4): 2.47% (inactive)
- inhibition (FGFR1): 4.17% (inactive)
- inhibition (FGFR3(K650E)): 2.8% (inactive)
- inhibition (FGFR3(K650M)): 1.1e-14% (inactive)
- inhibition (FGFR4(N535K)): 0.356% (inactive)
- inhibition (FGFR4(V550L)): 4.09% (inactive)
- inhibition (FGFR4): 5.54% (inactive)
- inhibition (FLT4): 9% (inactive)
- inhibition (FMS): -0.377% (inactive)
- inhibition (GSK3a): 101%
- inhibition (HER4): -0.972% (inactive)
- inhibition (HIPK1): 8.84% (inactive)
- inhibition (HIPK3): 3.54% (inactive)
- inhibition (HIPK4): 7.81% (inactive)
- inhibition (Haspin): -1.27% (inactive)
- inhibition (IGF1R): -2.57% (inactive)
- inhibition (IKKb): -2.12% (inactive)
- inhibition (IRAK4): -2.34% (inactive)
- inhibition (IRR): -1.56% (inactive)
- inhibition (JAK2): -0.539% (inactive)
- inhibition (JAK3): 8.04% (inactive)
- inhibition (JNK1): -1.99% (inactive)
- inhibition (JNK2): 3.84% (inactive)
- inhibition (JNK3): 2.16% (inactive)
- inhibition (KIT(T670I)): 8.36% (inactive)
- inhibition (KIT(V560G)): 3.59% (inactive)
- inhibition (KIT): 6.69% (inactive)
- inhibition (LATS2): 3.09% (inactive)
- inhibition (LOK): 8.66% (inactive)
- inhibition (LTK): 11.1% (inactive)
- inhibition (LYNa): 15.1% (inactive)
- inhibition (MAP2K3, cascade assay): 6.17% (inactive)
- inhibition (MAP2K4, cascade assay): 0.115% (inactive)
- inhibition (MAP3K4, cascade assay): 7.41% (inactive)
- inhibition (MAP3K5, cascade assay): 14.4% (inactive)
- inhibition (MAP4K2): 7.36% (inactive)
- inhibition (MARK2): 39.1% (inactive)
- inhibition (MARK4): 48.6% (inactive)
- inhibition (MELK): 7.87% (inactive)
- inhibition (MER): 8.36% (inactive)
- inhibition (MGC42105): 0.183% (inactive)
- inhibition (MINK): -2.54% (inactive)
- inhibition (MLK1, cascade assay): 17.6% (inactive)
- inhibition (MLK2, cascade assay): 4.73% (inactive)
- inhibition (MLK3, cascade assay): 1.88% (inactive)
- inhibition (MSK1): 3.83% (inactive)
- inhibition (MST2): -3.85% (inactive)
- inhibition (MST4): -1.67% (inactive)
- inhibition (NDR1): -0.193% (inactive)
- inhibition (NEK1): 0.375% (inactive)
- inhibition (NEK2): 0.761% (inactive)
- inhibition (NEK6): 3.82% (inactive)
- inhibition (NEK7): -4.5% (inactive)
- inhibition (PAK3): 33.4% (inactive)
- inhibition (PAK4): 17.6% (inactive)
- inhibition (PAK5): 14.9% (inactive)
- inhibition (PASK): 3.87% (inactive)
- inhibition (PBK): 0.885% (inactive)
- inhibition (PDGFRa(V561D)): 2.12% (inactive)
- inhibition (PEK): -3.83% (inactive)
- inhibition (PGK): 0.119% (inactive)
- inhibition (PHKG1): 5.52% (inactive)
- inhibition (PIK3CA/PIK3R1): -2.01% (inactive)
- inhibition (PIM2): 0.406% (inactive)
- inhibition (PIM3): 8.57% (inactive)
- inhibition (PKACg): 1.21% (inactive)
- inhibition (PKCa): 4.41% (inactive)
- inhibition (PKCb2): 9.38% (inactive)
- inhibition (PKCd): 8.65% (inactive)
- inhibition (PKCg): 5.54% (inactive)
- inhibition (PKD1): -0.973% (inactive)
- inhibition (PKD2): 0.969% (inactive)
- inhibition (PKD3): 5.41% (inactive)
- inhibition (PKN1): 23.4% (inactive)
- inhibition (PLK1): 0.912% (inactive)
- inhibition (PRKX): -1.49% (inactive)
- inhibition (RET(S891A)): 16.1% (inactive)
- inhibition (RET(Y791F)): 2.31% (inactive)
- inhibition (ROCK1): 6.72% (inactive)
- inhibition (ROCK2): 2.67% (inactive)
- inhibition (ROS): 82.7%
- inhibition (RSK1): 8.92% (inactive)
- inhibition (RSK2): 10.7% (inactive)
- inhibition (RSK4): 10.3% (inactive)
- inhibition (SGK3): 0.498% (inactive)
- inhibition (SIK): 3.03% (inactive)
- inhibition (SLK): 10.4% (inactive)
- inhibition (SRC): 4% (inactive)
- inhibition (SRM): -2.09% (inactive)
- inhibition (SRPK1): 13.7% (inactive)
- inhibition (SYK): -0.473% (inactive)
- inhibition (TAK1-TAB1, cascade assay): 3.32% (inactive)
- inhibition (TIE2): 4.15% (inactive)
- inhibition (TNK1): 3.87% (inactive)
- inhibition (TRKA): 54.8%
- inhibition (TSSK3): 0% (inactive)
- inhibition (TYK2): -1.6% (inactive)
- inhibition (WNK2): -0.427% (inactive)
- inhibition (p38a): 1.28% (inactive)
- inhibition (p38d): 15.7% (inactive)
Structure (SMILES): COc1ccccc1[C@@H]1C2=C(CC(C)(C)CC2=O)Nc2n[nH]c(C(F)(F)F)c21

Reference: PubChem BioAssay AID624076 (Broad Institute, 2012)
